The record followed here is US20110064775A1, “METALLO-ORGANIC SYSTEM FOR THE ENCAPSULATION AND RELEASE OF COMPOUNDS OF INTEREST, METHOD FOR OBTAINING SAME AND USES THEREOF” (CONSEJO SUPERIOR DE INVESTIGACIONES CIENTIFÍCAS, priority 2008, published 2011).

Entries after “also recorded” stand apart in the source; their conditions may differ.

The data set in a line: fluorescence emission spectrum of encapsulated versus free substance (integrity after encapsulation). Particulars: encapsulated vs free state. Type of data set: physicochemical. The source says: Both images have been obtained using an AxioObserver Z1M (Zeiss Microscope) optical microscope.
The scanning and fluorescence images have been taken using a Hitachi S-570 scanning microscope and an AxioObserver Z1M (Zeiss 25 Microscope) optical microscope, respectively. The fluorescence intensities have been obtained using an Applied Photophysics fluorometer with a Quantel pulsed laser.

Regarding `COc1cccc2c1C(=O)c1c(O)c3c(c(O)c1C2=O)C[C@@](O)(C(=O)CO)C[C@@H]3O[C@H]1C[C@H](N)[C@H](O)[C@H](C)O1` [doxorubicin], the “modification or degradation during the encapsulation process” value is listed as “has not been modified; also recorded: has not been modified or degraded”.
